The supplement of paper PMC11208160

assay: recombinant UMI read abundance after kanamycin selection (control-corrected) (log10(CPM+1)); higher = more efficient recombination; extreme values may be limits of the assay; sequences stand for … in AGTGCAGAGAAAATCGGCCAGTTTTCTCTGCCTGCAGTCCGCATGCCGTGGGACCCCTTGGGTTCTAACCTGTTGCCTAGATTTATGCAGCGGACTGCCTTTCTCCCAAAGTGATAAACCGG…AGGTTGGTTTCACT; site = the 11-nt donor
Experimental: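 Pooled E. coli donor-specificity screen for the IS621 bridge recombinase. Each library member carries a reprogrammed 11-nt donor and a full-length LE bridge RNA expressed in cis from the natural promoter, with a paired donor-binding loop (8-nt LDG + 4-nt RDG) and a target-binding loop fixed to T5. It is co-electroporated with a T5 target plasmid; recombinase is induced with 0.07 mM IPTG and recombinants are selected on kanamycin. UMIs are counted as CPM, averaged over two biological replicates and corrected by the unselected control. Molecule = full bridge RNA written as DNA, built from the T5 scaffold: LDG = donor specificity nt 1-8, RDG = reverse complement of nt 8-11.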
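Also: IS621 bridge recombinase in Escherichia coli cells against a fixed T5 target plasmid.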

Going from “AAGTGAGCATGGACCGGTTTTCCCGGTAATCCGTATTTGGA (site AAGTGAGCTTC)” to “AATAATGCATGGACCGGTTTTCCCGGTAATCCGTATTTGGA (site AATAATGCTTC)”, the “recombinant UMI read abundance (log10)” value rises from 0.812 to 1.06.

“AATAATGCATGGACCGGTTTTCCCGGTAATCCGTATTTGGA (site AATCATGCTTC)” and “AATAATGCATGGACCGGTTTTCCCGGTAATCCGTATTTGGA (site AATGATGCTTC)” are within 0.2 log units of each other in “recombinant UMI read abundance (log10)” value: 0.217 for the first, 0.361 for the second.

Compared with “AATAATGCATGGACCGGTTTTCCCGGTAATCCGTATTTGGA (site AATTATGCTTC)”, “AATACTTCATGGACCGGTTTTCCCGGTAATCCGTATTTGGA (site AATACTTCTTC)” is higher in “recombinant UMI read abundance (log10)” value: 0.707 for the first, 1.81 for the second.

Compared with “AATAGACCATGGACCGGTTTTCCCGGTAATCCGTATTTGAT (site AATAGACCTAT)”, “AATAGTACATGGACCGGTTTTCCCGGTAATCCGTATTTGCG (site AATAGTACTCG)” is higher in “recombinant UMI read abundance (log10)” value: 0 for the first, 0.989 for the second.

First: AATCAACCATGGACCGGTTTTCCCGGTAATCCGTATTTGGT (site AATCAACCTAC)
Second: AATCAATCATGGACCGGTTTTCCCGGTAATCCGTATTTGGC (site AATCAATCTGC)
The “recombinant UMI read abundance (log10)” value of the first is lower: 0.00613 for the first, 2.07 for the second.

Compared with “AATCATTCATGGACCGGTTTTCCCGGTAATCCGTATTTGCT (site AATCATTCTAG)”, “AATCCTCCATGGACCGGTTTTCCCGGTAATCCGTATTTGGA (site AATCCTCCTTC)” is lower in “recombinant UMI read abundance (log10)” value: 2.27 for the first, 0 for the second.

“AATCGTCCATGGACCGGTTTTCCCGGTAATCCGTATTTGAT (site AAACGTCCTAT)” and “AATCGTCCATGGACCGGTTTTCCCGGTAATCCGTATTTGAT (site AACCGTCCTAT)” are within 0.2 log units of each other in “recombinant UMI read abundance (log10)” value: 0.00356 for the first, 0.0167 for the second.

“AATCGTCCATGGACCGGTTTTCCCGGTAATCCGTATTTGAT (site AAGCGTCCTAT)” and “AATCGTCCATGGACCGGTTTTCCCGGTAATCCGTATTTGAT (site AATCGTCCTAT)” are within 0.2 log units of each other in “recombinant UMI read abundance (log10)” value: 0.432 for the first, 0.306 for the second.

“AATCTACCATGGACCGGTTTTCCCGGTAATCCGTATTTGAG (site AATCTACCTCT)” and “AATCTCGCATGGACCGGTTTTCCCGGTAATCCGTATTTGCG (site AATCTCGCTCG)” are within 0.2 log units of each other in “recombinant UMI read abundance (log10)” value: 0.0184 for the first, 0.0146 for the second.

“AATGCCTCATGGACCGGTTTTCCCGGTAATCCGTATTTGAG (site AATGCCTCTCT)” and “AATGTATCATGGACCGGTTTTCCCGGTAATCCGTATTTGCT (site AATGTAACTAG)” are within 0.2 log units of each other in “recombinant UMI read abundance (log10)” value: 0.693 for the first, 0.796 for the second.

“AATGTATCATGGACCGGTTTTCCCGGTAATCCGTATTTGCT (site AATGTACCTAG)” and “AATGTATCATGGACCGGTTTTCCCGGTAATCCGTATTTGCT (site AATGTAGCTAG)” are within 0.2 log units of each other in “recombinant UMI read abundance (log10)” value: 0.03 for the first, 0 for the second.

Compared with “AATGTATCATGGACCGGTTTTCCCGGTAATCCGTATTTGCT (site AATGTATCTAG)”, “AATTAGGCATGGACCGGTTTTCCCGGTAATCCGTATTTGGA (site AATTAAGCTTC)” is lower in “recombinant UMI read abundance (log10)” value: 2.56 for the first, 0.133 for the second.

First: AATTAGGCATGGACCGGTTTTCCCGGTAATCCGTATTTGGA (site AATTACGCTTC)
Second: AATTAGGCATGGACCGGTTTTCCCGGTAATCCGTATTTGGA (site AATTAGGCTTC)
The “recombinant UMI read abundance (log10)” value of the first is lower: 0.011 for the first, 0.746 for the second.

Compared with “AATTAGGCATGGACCGGTTTTCCCGGTAATCCGTATTTGGA (site AATTATGCTTC)”, “AATTATTCATGGACCGGTTTTCCCGGTAATCCGTATTTGGA (site AATTATACTTC)” is higher in “recombinant UMI read abundance (log10)” value: 0.317 for the first, 0.554 for the second.

First: AATTATTCATGGACCGGTTTTCCCGGTAATCCGTATTTGGA (site AATTATCCTTC)
Second: AATTATTCATGGACCGGTTTTCCCGGTAATCCGTATTTGGA (site AATTATGCTTC)
The “recombinant UMI read abundance (log10)” value of the first is higher: 0.553 for the first, 0.0186 for the second.

Compared with “AATTATTCATGGACCGGTTTTCCCGGTAATCCGTATTTGGA (site AATTATTCTTC)”, “AATTCGTCATGGACCGGTTTTCCCGGTAATCCGTATTTGAA (site AATTCGTCTTT)” is lower in “recombinant UMI read abundance (log10)” value: 2.28 for the first, 0.559 for the second.

Compared with “AATTGTGCATGGACCGGTTTTCCCGGTAATCCGTATTTGGA (site AATTATGCTTC)”, “AATTGTGCATGGACCGGTTTTCCCGGTAATCCGTATTTGGA (site AATTCTGCTTC)” is lower in “recombinant UMI read abundance (log10)” value: 0.773 for the first, 0.00901 for the second.

First: AATTGTGCATGGACCGGTTTTCCCGGTAATCCGTATTTGGA (site AATTGTGCTTC)
Second: AATTGTGCATGGACCGGTTTTCCCGGTAATCCGTATTTGGA (site AATTTTGCTTC)
The “recombinant UMI read abundance (log10)” value of the first is higher: 0.895 for the first, 0.0805 for the second.

“AATTTAGCATGGACCGGTTTTCCCGGTAATCCGTATTTGTC (site AATTTAGCTGA)” and “AATTTTGCATGGACCGGTTTTCCCGGTAATCCGTATTTGGA (site AATTATGCTTC)” are within 0.2 log units of each other in “recombinant UMI read abundance (log10)” value: 0.582 for the first, 0.473 for the second.

“AATTTTGCATGGACCGGTTTTCCCGGTAATCCGTATTTGGA (site AATTCTGCTTC)” and “AATTTTGCATGGACCGGTTTTCCCGGTAATCCGTATTTGGA (site AATTGTGCTTC)” are within 0.2 log units of each other in “recombinant UMI read abundance (log10)” value: 0.118 for the first, 0.154 for the second.

Going from “AATTTTGCATGGACCGGTTTTCCCGGTAATCCGTATTTGGA (site AATTTTGCTTC)” to “ACAAAGACATGGACCGGTTTTCCCGGTAATCCGTATTTGCA (site ACAAAGACTTG)”, the “recombinant UMI read abundance (log10)” value rises from 1 to 3.1.

First: ACAAAGACATGGACCGGTTTTCCCGGTAATCCGTATTTGCA (site AGGAAGACTTG)
Second: ACAAAGCCATGGACCGGTTTTCCCGGTAATCCGTATTTGGC (site ACAAAGCCTGC)
The “recombinant UMI read abundance (log10)” value of the first is higher: 2.33 for the first, 0 for the second.

First: ACAAGAACATGGACCGGTTTTCCCGGTAATCCGTATTTGTC (site ACAAGAACTGA)
Second: ACAAGAACATGGACCGGTTTTCCCGGTAATCCGTATTTGTC (site ACACGAACTGA)
The “recombinant UMI read abundance (log10)” value of the first is higher: 1.75 for the first, 0.00498 for the second.

“ACAAGAACATGGACCGGTTTTCCCGGTAATCCGTATTTGTC (site ACAGGAACTGA)” and “ACAAGAACATGGACCGGTTTTCCCGGTAATCCGTATTTGTC (site ACATGAACTGA)” are the same in “recombinant UMI read abundance (log10)” value: 0 for the first, 0 for the second.

Compared with “ACAAGGACATGGACCGGTTTTCCCGGTAATCCGTATTTGCG (site ACAAGGACTCG)”, “ACAAGGGCATGGACCGGTTTTCCCGGTAATCCGTATTTGAC (site ACAAGGGCTGT)” is higher in “recombinant UMI read abundance (log10)” value: 2.42 for the first, 2.69 for the second.

First: ACAAGTGCATGGACCGGTTTTCCCGGTAATCCGTATTTGAC (site ACAAGTGCTGT)
Second: ACAAGTTCATGGACCGGTTTTCCCGGTAATCCGTATTTGTC (site ACAAGTTCTGA)
The “recombinant UMI read abundance (log10)” value of the first is higher: 2.62 for the first, 0 for the second.
